Data as given in ChEMBL document CHEMBL4033665, “Synthesis and applications of benzohydroxamic acid-based histone deacetylase inhibitors” (Eur J Med Chem, 2017).

Tests used:
Histone deacetylase 7 = biological target: T1, Histone deacetylase 7 (Homo sapiens, UniProt Q8WUI4); test: Inhibition of human HDAC7 after 15 mins by trypsin-coupled fluorescence assay
T1 sequence (Q8WUI4 whole entry): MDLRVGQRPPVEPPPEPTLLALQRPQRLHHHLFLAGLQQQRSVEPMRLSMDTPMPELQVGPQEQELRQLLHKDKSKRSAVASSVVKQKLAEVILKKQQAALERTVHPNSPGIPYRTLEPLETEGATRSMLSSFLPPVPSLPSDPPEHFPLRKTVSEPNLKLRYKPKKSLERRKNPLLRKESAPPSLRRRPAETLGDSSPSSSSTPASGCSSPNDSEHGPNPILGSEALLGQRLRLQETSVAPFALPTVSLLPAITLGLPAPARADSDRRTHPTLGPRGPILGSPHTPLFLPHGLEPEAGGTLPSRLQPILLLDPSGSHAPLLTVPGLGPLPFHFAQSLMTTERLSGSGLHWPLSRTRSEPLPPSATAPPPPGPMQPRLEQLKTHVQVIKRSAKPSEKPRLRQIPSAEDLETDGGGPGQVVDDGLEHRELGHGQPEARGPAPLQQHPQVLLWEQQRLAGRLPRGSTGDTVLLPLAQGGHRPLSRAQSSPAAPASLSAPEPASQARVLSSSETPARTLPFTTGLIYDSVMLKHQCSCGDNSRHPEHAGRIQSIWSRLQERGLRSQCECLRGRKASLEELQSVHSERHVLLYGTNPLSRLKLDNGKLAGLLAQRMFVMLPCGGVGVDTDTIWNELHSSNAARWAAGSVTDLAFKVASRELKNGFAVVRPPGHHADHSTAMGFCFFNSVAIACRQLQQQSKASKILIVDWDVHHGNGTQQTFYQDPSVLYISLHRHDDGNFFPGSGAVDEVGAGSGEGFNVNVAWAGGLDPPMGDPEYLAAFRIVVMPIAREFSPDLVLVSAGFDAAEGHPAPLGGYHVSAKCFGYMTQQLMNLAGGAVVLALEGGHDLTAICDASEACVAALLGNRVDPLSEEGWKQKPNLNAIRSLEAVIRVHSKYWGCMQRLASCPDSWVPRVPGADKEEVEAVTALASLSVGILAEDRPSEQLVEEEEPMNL

[1] = biological target: T2, Protein deacetylase HDAC6 (Homo sapiens, UniProt Q9UBN7); test: Inhibition of human HDAC6 after 15 mins by trypsin-coupled fluorescence assay
T2 sequence (Q9UBN7 whole entry): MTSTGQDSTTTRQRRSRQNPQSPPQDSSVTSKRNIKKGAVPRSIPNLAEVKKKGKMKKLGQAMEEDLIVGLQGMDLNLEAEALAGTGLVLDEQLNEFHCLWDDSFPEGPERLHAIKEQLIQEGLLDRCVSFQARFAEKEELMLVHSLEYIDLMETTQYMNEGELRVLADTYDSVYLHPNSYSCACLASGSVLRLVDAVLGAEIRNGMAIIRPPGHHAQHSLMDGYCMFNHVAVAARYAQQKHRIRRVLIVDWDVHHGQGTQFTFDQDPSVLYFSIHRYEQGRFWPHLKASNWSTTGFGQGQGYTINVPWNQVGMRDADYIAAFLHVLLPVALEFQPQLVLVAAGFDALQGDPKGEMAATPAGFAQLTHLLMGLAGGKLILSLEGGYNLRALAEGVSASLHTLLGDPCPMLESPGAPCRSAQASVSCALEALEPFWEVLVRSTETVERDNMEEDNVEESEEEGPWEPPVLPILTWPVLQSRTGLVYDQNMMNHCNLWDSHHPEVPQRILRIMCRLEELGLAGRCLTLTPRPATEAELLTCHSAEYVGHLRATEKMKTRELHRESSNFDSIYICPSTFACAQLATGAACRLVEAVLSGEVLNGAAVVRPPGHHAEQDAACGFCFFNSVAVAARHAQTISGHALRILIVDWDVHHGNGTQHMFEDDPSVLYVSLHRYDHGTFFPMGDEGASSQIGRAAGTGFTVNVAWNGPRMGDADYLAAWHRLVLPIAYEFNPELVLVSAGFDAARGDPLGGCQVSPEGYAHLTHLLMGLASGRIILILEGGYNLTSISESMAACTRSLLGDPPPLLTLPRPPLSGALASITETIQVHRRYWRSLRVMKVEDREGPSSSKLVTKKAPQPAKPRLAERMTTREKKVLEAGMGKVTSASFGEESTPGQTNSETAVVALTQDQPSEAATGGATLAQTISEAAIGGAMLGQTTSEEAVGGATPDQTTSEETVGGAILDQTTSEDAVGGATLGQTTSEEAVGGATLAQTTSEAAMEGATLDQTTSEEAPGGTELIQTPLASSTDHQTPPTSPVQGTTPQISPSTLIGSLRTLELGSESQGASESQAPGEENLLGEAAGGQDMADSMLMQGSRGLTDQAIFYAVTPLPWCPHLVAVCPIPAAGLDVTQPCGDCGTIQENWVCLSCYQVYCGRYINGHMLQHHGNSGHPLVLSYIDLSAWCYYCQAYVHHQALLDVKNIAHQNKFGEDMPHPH

O=C(NO)c1ccc(CN(CCO)C(=O)Cc2ccccc2)cc1
IC50 (Histone deacetylase 7): 1100 nM | IC50 [1]: 25 nM
